Measurements published in patent publication US20260355188A1, “COMBINATION THERAPIES USING PRMT5 INHIBITORS AND BCL-2 FAMILY INHIBITORS FOR THE TREATMENT OF CANCER” (MIRATI THERAPEUTICS, INC., priority 2022, published 2026).

Assays:
[1] = system: NCI-H1437 xenograft tumors; assay: In vivo combination study (NCI-H1437 model), Example 2; set-up: species or system female nu/nu mice; conditions: MRTX1719 and ABT-263 100 mg/kg PO QD, A-1331852 25 mg/kg PO QD, alone or combined
Excerpt: (§1) Immunodeficient female nu/nu mice were implanted with 5×10^6 LU99 cancer cells in 50% Matrigel. Tumor volume measurements were collected using calipers and determined utilizing the formula 0.5×L×W^2 in which L refers to length and W refers to width of each tumor. When tumors reached approximately 125-150 mm^3, animals were randomized to receive A) vehicle, B) a PRMT5 inhibitor, C) navitoclax (ABT-263), D) venetoclax (ABT-199), E) A-1331852, F) the PRMT5 inhibitor and navitoclax, F) the PRMT5 inhibitor and venetoclax, or G) the PRMT5 inhibitor and A-1331852 all administered orally (PO) with the indicated dose and schedule for 20-34 days. Tumor volume was measured twice a week (n=5/treatment group). Average tumor volume and standard error of the mean was calculated and plotted at each study day using GraphPad Prism.
Example 2 was carried out using NCI-H1437 cell line derived xenografts according to the in vivo study procedure described above in Example 1.
(§2) The PRMT5 inhibitor was MRTX1719 administered at 100 mg/kg once a day (QD). MRTX1719 is (2M)-2-(4-(4-(aminomethyl)-1-oxo-1,2-dihydrophthalazin-6-yl)-1-methyl-1H-pyrazol-5-yl)-4-chloro-6-cyclopropoxy-3-fluorobenzonitrile, disclosed as Example 16-8 at p. 307 of the international patent publication No. WO 2021/050915 A1, published 18 Mar. 2021, incorporated by reference in its entirety. The BCL-2 family inhibitor, ABT-263 (navitoclax), was administered at 100 mg/kg once a day (QD) and supplied by Selleck Chemicals (Houston, TX). The BCL-2 family inhibitor A-1331852 was administered at 25 mg/kg once a day (QD) and synthesized at Wuxi AppTec (Wuhan, China).

SW1573 xenograft tumors = assay: In vivo combination study (SW1573 model), Example 3; set-up: species or system female nu/nu mice; conditions: MRTX1719 and ABT-263 100 mg/kg PO QD, A-1331852 25 mg/kg PO QD, alone or combined
Excerpt: as §1
Example 3 was carried out in SW1573 cell line derived xenografts according to the in vivo study procedure described above in Example 1.
as §2

[2] = system: NCI-H1650 xenograft tumors; assay: In vivo combination study (NCI-H1650 model), Example 5; set-up: species or system female nu/nu mice; conditions: MRTX1719 and ABT-263 100 mg/kg PO QD, A-1331852 25 mg/kg PO BID, alone or combined
Excerpt: as §1
Example 5 was carried out using NCI-H1650 cell line derived xenografts according to the in vivo study procedure described above in Example 1.
The PRMT5 inhibitor was MRTX1719 administered at 100 mg/kg once a day (QD). MRTX1719 is (2M)-2-(4-(4-(aminomethyl)-1-oxo-1,2-dihydrophthalazin-6-yl)-1-methyl-1H-pyrazol-5-yl)-4-chloro-6-cyclopropoxy-3-fluorobenzonitrile, disclosed as Example 16-8 at p. 307 of the international patent publication No. WO 2021/050915 A1, published 18 Mar. 2021, incorporated by reference in its entirety. The BCL-2 family inhibitor, ABT-263 (navitoclax), was administered at 100 mg/kg once a day (QD) and supplied by Selleck Chemicals (Houston, TX). The BCL-2 family inhibitor A-1331852 was administered at 25 mg/kg twice a day (BID) and synthesized at Wuxi AppTec (Wuhan, China).

H1650 = assay: In vitro combination synergy, H1650 (Cell-Titer Glo); assay type: cell-based; conditions: combined with exemplary PRMT5 inhibitor, 120 h, sum of Loewe, Bliss, HSA and ZIP scores
Method: (§3) A panel of MTAP-deleted cancer cell lines was assembled to determine whether combining BCL-2 family inhibitors with exemplary PRMT5 inhibitors disclosed herein results in synergistic activity.
(§4) [Assays for determining the synergy score for the pairwise combinations for each cell line were performed in triplicate. 384 or 96-well plates plus additional wells of a separate 384 or 96-well control plate for determining baseline luminescence were seeded with cells of a particular MTAP-deleted cell line in a suitable growth medium for that cell line, e.g., RPMI 1640 medium supplemented with 10% FBS and any cell line specific reagents needed for growth. The plates were incubated overnight at 37 °C in a 5% CO2 atmosphere.
(§5) To each of the designated baseline wells, Cell-Titer Glo reagent (CTG; Promega Corporation) was added to each well and the plates were incubated for 20 min shaking at room temperature. Baseline luminescence was quantitated using a BMG ClarioStar multimode plate reader according to the manufacturer's instructions.
(§6) A series of 1000× drug dilutions in 100% DMSO was prepared that includes a 9-point single agent 3-fold dilution of the exemplary PRMT5 inhibitor (of the type described in WO2021/050915) with a top dose of 3000 nM (and a 6-point single agent 5-fold dilution of the BCL-2 family inhibitor with a top dose of 3000 nM as reference standards.
(§7) A 10× intermediate dosing plate was prepared in serum free medium that contains arrayed single agent dilutions of exemplary PRMT5 inhibitor (of the type described in WO2021/050915) and or the BCL-2 family inhibitor. In addition, a matrix of 54 dilution combinations of exemplary PRMT5 inhibitor (of the type described in WO2021/050915) and the BCL-2 family inhibitor was prepared as test samples.
(§8) To each corresponding well of the 384-well plates seeded with the appropriate cell line above, 10× single agent and the 54 combinations of the dose matrix was added and the plates were incubated for 120 hours at 37 °C in 5% CO2 atmosphere. Cell-Titer Glo reagent (CTG) was added to each test well, the plates were incubated for 20 min shaking at room temperature, and luminescence was quantitated using a BMG ClarioStar multimode plate reader according to the manufacturer's instructions. To normalize test samples, the determined baseline luminescence was subtracted from each test sample prior to analysis and mean values are calculated from replicate samples.
(§9) The output of the data from each mathematical model is the assignment of a relative synergy score. The data reported in Table 6 are the aggregate sum of the Loewe additivity, Bliss independence, Highest Single Agent and ZIP synergy scores (“Composite Synergy Score”).

RT4 = assay: In vitro combination synergy, RT4 (Cell-Titer Glo); assay type: cell-based; conditions: combined with exemplary PRMT5 inhibitor, 120 h, sum of Loewe, Bliss, HSA and ZIP scores
Method: as §3, §4, §5, §6, §7, §8, §9

SMILES	Average Tumor Volume ([1]; day 4) [mm^3]	Average Tumor Volume ([1]; day 7) [mm^3]	Average Tumor Volume ([1]; day 11) [mm^3]	Average Tumor Volume ([1]; day 14) [mm^3]	Average Tumor Volume ([1]; day 18) [mm^3]	Average Tumor Volume ([1]; day 21) [mm^3]	Average Tumor Volume ([1]; day 25) [mm^3]	Average Tumor Volume ([1]; day 28) [mm^3]	Average Tumor Volume ([1]; day 34) [mm^3]	Average Tumor Volume ([1]; day −1) [mm^3]	Average Tumor Volume (SW1573 xenograft tumors; day 3) [mm^3]	Average Tumor Volume (SW1573 xenograft tumors; day 6) [mm^3]	Average Tumor Volume (SW1573 xenograft tumors; day 10) [mm^3]	Average Tumor Volume (SW1573 xenograft tumors; day 13) [mm^3]	Average Tumor Volume (SW1573 xenograft tumors; day 17) [mm^3]	Average Tumor Volume (SW1573 xenograft tumors; day 20) [mm^3]	Average Tumor Volume (SW1573 xenograft tumors; day 26) [mm^3]	Average Tumor Volume (SW1573 xenograft tumors; day −1) [mm^3]	Average Tumor Volume ([2]; day 0) [mm^3]	Average Tumor Volume ([2]; day 5) [mm^3]	further results
Cn1ncc(-c2ccc3c(=O)[nH]nc(CN)c3c2)c1-c1c(F)c(Cl)cc(OC2CC2)c1C#N (atropisomer, axis not shown; (M)) [MRTX1719, (2M)-2-(4-(4-(aminomethyl)-1-oxo-1,2-dihydrophthalazin-6-yl)-1-methyl-1H-pyrazol-5-yl)-4-chloro-6-cyclopropoxy-3-fluorobenzonitrile]	200	244	268	288	316	322	340	362	441	139	172	220	229	242	319	387	444	126	149	246	Average Tumor Volume ([2]; day 8): 292 mm^3; Average Tumor Volume ([2]; day 13): 344 mm^3; Average Tumor Volume ([2]; day 15): 398 mm^3; Average Tumor Volume ([2]; day 19): 469 mm^3; Average Tumor Volume ([2]; day 22): 510 mm^3
Cc1c(-c2ccc(N3CCc4cccc(C(=O)Nc5nc6ccccc6s5)c4C3)nc2C(=O)O)cnn1CC12CC3CC(CC(C3)C1)C2 [A-1331852]	171	191	248	300	332	376	467	564	683	139	209	250	271	305	421	456	609	125	143	163	Average Tumor Volume ([2]; day 8): 189 mm^3; Average Tumor Volume ([2]; day 13): 255 mm^3; Average Tumor Volume ([2]; day 15): 291 mm^3; Average Tumor Volume ([2]; day 19): 347 mm^3; Average Tumor Volume ([2]; day 22): 366 mm^3; Composite Synergy Score (H1650): 62; Composite Synergy Score (RT4): 40
CC1(C)CCC(c2ccc(Cl)cc2)=C(CN2CCN(c3ccc(C(=O)NS(=O)(=O)c4ccc(N[C@H](CCN5CCOCC5)CSc5ccccc5)c(S(=O)(=O)C(F)(F)F)c4)cc3)CC2)C1 [ABT-263, navitoclax]	172	192	244	269	288	299	389	420	472	138	265	328	395	536	678	809	1133	123	155	186	Average Tumor Volume ([2]; day 8): 210 mm^3; Average Tumor Volume ([2]; day 13): 302 mm^3; Average Tumor Volume ([2]; day 15): 319 mm^3; Average Tumor Volume ([2]; day 19): 339 mm^3; Average Tumor Volume ([2]; day 22): 371 mm^3; Composite Synergy Score (H1650): 32; Composite Synergy Score (RT4): 24
